Active and inactive are the calls of the source. The calls are words filed in the database; no cut-off is given here.
What was measured:
[1] = target: DNA topoisomerase 2-alpha (Homo sapiens) (UniProt P11388); experiment: (§1) Poison activity at recombinant human topoisomerase-2alpha expressed in Saccharomyces cerevisiae assessed as stabilization of DNA-enzyme cleavage complex by measuring concentration required to generate 10% double-stranded DNA breaks using supercoiled pBR322 DNA as substrate incubated for 6 mins measured after 30 mins by ethidium bromide staining based agarose gel electrophoresis method
[2] = target: DNA topoisomerase 2-beta (Homo sapiens) (UniProt Q02880); experiment: as §1, with “topoisomerase-2beta” for “topoisomerase-2alpha”
[3] = target: DNA topoisomerase 2-alpha (Homo sapiens) (UniProt P11388); experiment: as §1, with “at 25 uM” for “by measuring concentration required to generate 10% double-stranded DNA breaks”
[4] = target: DNA topoisomerase 2-beta (Homo sapiens) (UniProt Q02880); experiment: as §1, with “topoisomerase-2beta” for “topoisomerase-2alpha”, “at 25 uM” for “by measuring concentration required to generate 10% double-stranded DNA breaks”
[5] = target: DNA topoisomerase 2-alpha (Homo sapiens) (UniProt P11388); experiment: Poison activity at recombinant human topoisomerase-2alpha expressed in Saccharomyces cerevisiae assessed as inhibition of DNA religation using single-stranded DNA at 25 uM incubated for 6 mins by agarose gel electrophoresis method
[6] = target: DNA topoisomerase 2-beta (Homo sapiens) (UniProt Q02880); experiment: Poison activity at recombinant human topoisomerase-2beta expressed in Saccharomyces cerevisiae assessed as inhibition of DNA religation using single-stranded DNA at 25 uM incubated for 6 mins by agarose gel electrophoresis method
[7] = target: DNA topoisomerase 2-alpha (Homo sapiens) (UniProt P11388); experiment: (§2) Inhibition of recombinant human topoisomerase-2alpha expressed in Saccharomyces cerevisiae assessed as increase in double-stranded DNA cleavage at 25 uM using supercoiled pBR322 DNA as substrate incubated for 6 mins measured after 30 mins by ethidium bromide staining based agarose gel electrophoresis method relative to etoposide
[8] = target: DNA topoisomerase 2-alpha (Homo sapiens) (UniProt P11388); experiment: Inhibition of recombinant human topoisomerase-2alpha expressed in Saccharomyces cerevisiae assessed as stabilization of DNA-enzyme cleavage complex at 25 uM incubated for […] followed by incubation in drug-free buffer by agarose gel electrophoresis method
[9] = target: DNA topoisomerase 2-beta (Homo sapiens) (UniProt Q02880); experiment: Inhibition of recombinant human topoisomerase-2beta expressed in Saccharomyces cerevisiae assessed as stabilization of DNA-enzyme cleavage complex at 25 uM incubated for 6 mins followed by incubation in drug-free buffer by agarose gel electrophoresis method
[10] = target: DNA topoisomerase 2-alpha (Homo sapiens) (UniProt P11388); experiment: as §2, with “single-stranded” for “double-stranded”
[11] = target: DNA topoisomerase 2-alpha (Homo sapiens) (UniProt P11388); experiment: as §2, with “total” for “double-stranded”
[12] = target: DNA topoisomerase 2-beta (Homo sapiens) (UniProt Q02880); experiment: as §2, with “topoisomerase-2beta” for “topoisomerase-2alpha”
[13] = target: DNA topoisomerase 2-beta (Homo sapiens) (UniProt Q02880); experiment: as §2, with “topoisomerase-2beta” for “topoisomerase-2alpha”, “single-stranded” for “double-stranded”
[14] = target: DNA topoisomerase 2-beta (Homo sapiens) (UniProt Q02880); experiment: as §2, with “topoisomerase-2beta” for “topoisomerase-2alpha”, “total” for “double-stranded”
[15] = target: DNA topoisomerase 2-beta (Homo sapiens) (UniProt Q02880); experiment: Inhibition of recombinant human topoisomerase-2beta expressed in Saccharomyces cerevisiae assessed as stabilization of DNA-enzyme cleavage complex at 50 uM incubated for 6 mins followed by incubation in drug-free buffer by agarose gel electrophoresis method
[16] = target: DNA topoisomerase 2-alpha (Homo sapiens) (UniProt P11388); conditions: 100 uM
Description: Poison activity at recombinant human topoisomerase-2alpha expressed in Saccharomyces cerevisiae assessed as inhibition of DNA religation using single-stranded DNA at 100 uM incubated for 6 mins by agarose gel electrophoresis method

[17] = target: DNA topoisomerase 2-alpha (Homo sapiens) (UniProt P11388); conditions: 100 uM; remark: listed apart in the source
Description: Inhibition of recombinant human topoisomerase-2alpha expressed in Saccharomyces cerevisiae assessed as stabilization of DNA-enzyme cleavage complex at 100 uM incubated for 10 mins followed by incubation in drug-free buffer by agarose gel electrophoresis method

DNA topoisomerase 2-alpha (Homo sapiens), sequence (P11388 whole entry): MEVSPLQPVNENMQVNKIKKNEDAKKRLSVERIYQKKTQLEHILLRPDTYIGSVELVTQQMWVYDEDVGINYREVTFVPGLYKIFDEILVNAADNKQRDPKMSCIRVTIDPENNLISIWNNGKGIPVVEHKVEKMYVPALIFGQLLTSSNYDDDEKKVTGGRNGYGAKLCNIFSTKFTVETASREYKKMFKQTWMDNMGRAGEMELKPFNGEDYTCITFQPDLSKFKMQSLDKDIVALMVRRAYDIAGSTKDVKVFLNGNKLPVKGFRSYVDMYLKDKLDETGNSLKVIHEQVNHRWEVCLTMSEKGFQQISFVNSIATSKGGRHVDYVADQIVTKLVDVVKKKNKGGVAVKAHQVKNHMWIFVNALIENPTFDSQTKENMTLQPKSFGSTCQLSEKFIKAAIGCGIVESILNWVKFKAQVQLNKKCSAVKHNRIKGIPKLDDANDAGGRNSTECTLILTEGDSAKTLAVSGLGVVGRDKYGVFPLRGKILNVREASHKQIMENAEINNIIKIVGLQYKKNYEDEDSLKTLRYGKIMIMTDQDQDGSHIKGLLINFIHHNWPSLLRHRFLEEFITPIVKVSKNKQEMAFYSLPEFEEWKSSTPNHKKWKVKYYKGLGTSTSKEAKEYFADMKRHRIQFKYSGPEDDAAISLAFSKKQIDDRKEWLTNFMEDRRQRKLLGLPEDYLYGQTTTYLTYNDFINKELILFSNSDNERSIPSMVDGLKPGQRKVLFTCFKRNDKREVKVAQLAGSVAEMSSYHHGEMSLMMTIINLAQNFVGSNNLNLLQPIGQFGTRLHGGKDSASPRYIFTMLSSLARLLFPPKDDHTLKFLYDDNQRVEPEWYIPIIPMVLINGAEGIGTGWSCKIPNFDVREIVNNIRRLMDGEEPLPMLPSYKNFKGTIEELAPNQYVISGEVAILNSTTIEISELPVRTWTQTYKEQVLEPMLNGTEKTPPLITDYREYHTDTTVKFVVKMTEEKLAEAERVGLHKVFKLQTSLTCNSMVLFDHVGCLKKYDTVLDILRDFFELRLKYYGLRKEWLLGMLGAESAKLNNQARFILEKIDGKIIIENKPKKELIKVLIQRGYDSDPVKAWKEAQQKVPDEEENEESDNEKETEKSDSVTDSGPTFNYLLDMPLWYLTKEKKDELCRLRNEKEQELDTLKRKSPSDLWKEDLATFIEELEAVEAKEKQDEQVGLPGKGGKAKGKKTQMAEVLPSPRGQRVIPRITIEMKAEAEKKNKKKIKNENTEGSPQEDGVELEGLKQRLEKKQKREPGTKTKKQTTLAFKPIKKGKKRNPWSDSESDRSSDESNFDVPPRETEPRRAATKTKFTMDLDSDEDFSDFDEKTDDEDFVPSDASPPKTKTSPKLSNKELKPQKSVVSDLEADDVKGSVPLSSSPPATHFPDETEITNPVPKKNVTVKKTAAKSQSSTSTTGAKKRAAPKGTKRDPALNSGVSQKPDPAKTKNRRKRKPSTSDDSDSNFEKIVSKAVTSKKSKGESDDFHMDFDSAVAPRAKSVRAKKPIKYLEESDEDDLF
DNA topoisomerase 2-beta (Homo sapiens), sequence (Q02880 whole entry): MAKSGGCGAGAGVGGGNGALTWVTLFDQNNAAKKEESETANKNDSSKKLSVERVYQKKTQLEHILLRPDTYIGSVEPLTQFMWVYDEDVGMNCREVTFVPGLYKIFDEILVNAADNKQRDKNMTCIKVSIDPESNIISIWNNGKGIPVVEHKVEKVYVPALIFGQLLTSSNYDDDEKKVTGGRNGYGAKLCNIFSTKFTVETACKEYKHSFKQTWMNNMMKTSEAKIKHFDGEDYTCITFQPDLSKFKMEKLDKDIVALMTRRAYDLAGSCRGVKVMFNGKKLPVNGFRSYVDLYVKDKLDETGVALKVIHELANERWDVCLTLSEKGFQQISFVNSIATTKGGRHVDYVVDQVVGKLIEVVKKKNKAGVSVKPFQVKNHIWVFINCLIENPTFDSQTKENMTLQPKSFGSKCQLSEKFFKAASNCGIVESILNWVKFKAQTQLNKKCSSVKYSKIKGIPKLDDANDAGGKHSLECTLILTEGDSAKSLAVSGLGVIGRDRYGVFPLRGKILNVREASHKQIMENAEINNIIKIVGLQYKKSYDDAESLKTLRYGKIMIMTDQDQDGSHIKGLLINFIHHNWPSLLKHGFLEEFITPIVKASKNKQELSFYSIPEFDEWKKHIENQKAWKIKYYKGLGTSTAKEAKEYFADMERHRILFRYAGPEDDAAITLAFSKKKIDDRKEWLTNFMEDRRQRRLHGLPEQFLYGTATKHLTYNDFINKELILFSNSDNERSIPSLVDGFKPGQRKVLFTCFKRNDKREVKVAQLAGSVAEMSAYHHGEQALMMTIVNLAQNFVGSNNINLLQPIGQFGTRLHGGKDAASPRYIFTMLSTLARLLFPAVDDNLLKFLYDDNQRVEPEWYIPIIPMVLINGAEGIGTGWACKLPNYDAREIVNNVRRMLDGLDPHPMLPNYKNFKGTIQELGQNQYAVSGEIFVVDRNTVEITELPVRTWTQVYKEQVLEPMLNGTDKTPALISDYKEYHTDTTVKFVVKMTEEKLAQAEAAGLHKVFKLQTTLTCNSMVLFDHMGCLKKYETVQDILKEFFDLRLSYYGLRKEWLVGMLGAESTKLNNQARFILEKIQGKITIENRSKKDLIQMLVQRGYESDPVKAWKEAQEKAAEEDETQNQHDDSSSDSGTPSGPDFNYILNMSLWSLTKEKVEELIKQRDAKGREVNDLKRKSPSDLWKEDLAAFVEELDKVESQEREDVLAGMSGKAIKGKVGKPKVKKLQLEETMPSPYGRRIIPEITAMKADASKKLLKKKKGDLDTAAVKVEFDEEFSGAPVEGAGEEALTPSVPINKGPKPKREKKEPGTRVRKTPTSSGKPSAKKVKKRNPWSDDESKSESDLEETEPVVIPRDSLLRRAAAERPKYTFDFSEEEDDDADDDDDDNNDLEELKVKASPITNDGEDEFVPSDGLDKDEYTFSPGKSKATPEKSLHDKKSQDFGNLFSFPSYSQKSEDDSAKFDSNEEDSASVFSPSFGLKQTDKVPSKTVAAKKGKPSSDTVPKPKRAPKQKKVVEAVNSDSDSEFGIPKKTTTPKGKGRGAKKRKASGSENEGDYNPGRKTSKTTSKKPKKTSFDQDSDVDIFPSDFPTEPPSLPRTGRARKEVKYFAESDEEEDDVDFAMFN

Question: For `COc1cc([C@@H]2c3cc4c(cc3[C@@H](NC(=O)CNCCCNCCNCCCN)[C@H]3COC(=O)[C@H]23)OCO4)cc(OC)c1O`, which Activity [1] is on record?
Answer: The Activity was 20.5 µM.

Question: What about the Activity [2] of the same compound?
Answer: Its Activity is 25.3 µM.

Question: What about the Activity [3] of the same compound?
Answer: Its Activity is “inactive”.

Question: What about the Activity [4] of the same compound?
Answer: The Activity was “inactive”.

Question: What about the inhibition [5] of the same compound?
Answer: The inhibition was “Active”.

Question: What about the inhibition [6] of the same compound?
Answer: The inhibition was “Active”.

Question: And the fold change (FC) [7]?
Answer: Its fold change (FC) is 1.93.

Question: What about the inhibition [8] of the same compound?
Answer: The inhibition was “Active”.

Question: And the inhibition [9]?
Answer: The inhibition was “Active”.

Question: And the fold change (FC) [10]?
Answer: Its fold change (FC) is 1.06.

Question: What about the fold change (FC) [11] of the same compound?
Answer: The fold change (FC) was 1.38.

Question: What about the fold change (FC) [12] of the same compound?
Answer: The fold change (FC) was 4.66.

Question: And the fold change (FC) [13]?
Answer: Its fold change (FC) is 4.27.

Question: And the fold change (FC) [14]?
Answer: Its fold change (FC) is 4.54.

Question: With `COc1cc([C@@H]2c3cc4c(cc3[C@@H](NC(=O)CNCCCNCCCCNCCCN)[C@H]3COC(=O)[C@H]23)OCO4)cc(OC)c1O` as the compound, how does the Activity [1] read?
Answer: The Activity was 4.8 µM.

Question: What about the Activity [2] of the same compound?
Answer: The Activity was 4.3 µM.

Question: And the Activity [3]?
Answer: The Activity was “inactive”.

Question: What about the Activity [4] of the same compound?
Answer: The Activity was “inactive”.

Question: And the inhibition [5]?
Answer: The inhibition was “Active”.

Question: What about the inhibition [6] of the same compound?
Answer: Its inhibition is “Active”.

Question: What about the fold change (FC) [7] of the same compound?
Answer: The fold change (FC) was 2.48.

Question: And the inhibition [8]?
Answer: The inhibition was “Active”.

Question: What about the inhibition [9] of the same compound?
Answer: The inhibition was “Active”.

Question: And the fold change (FC) [10]?
Answer: The fold change (FC) was 0.92.

Question: And the fold change (FC) [11]?
Answer: Its fold change (FC) is 1.49.

Question: What about the fold change (FC) [12] of the same compound?
Answer: Its fold change (FC) is 10.3.

Question: And the fold change (FC) [13]?
Answer: The fold change (FC) was 2.68.

Question: What about the fold change (FC) [14] of the same compound?
Answer: The fold change (FC) was 7.85.

Question: How did the Activity [1] turn out when `COc1cc([C@@H]2c3cc4c(cc3[C@@H](NC(=O)CNCCCNCCCNCCCN)[C@H]3COC(=O)[C@H]23)OCO4)cc(OC)c1O` was run?
Answer: Its Activity is 12.2 µM.

Question: What about the Activity [2] of the same compound?
Answer: Its Activity is 8.1 µM.

Question: And the Activity [3]?
Answer: The Activity was “inactive”.

Question: And the Activity [4]?
Answer: The Activity was “inactive”.

Question: And the inhibition [5]?
Answer: Its inhibition is “Active”.

Question: And the inhibition [6]?
Answer: The inhibition was “Active”.

Question: What about the fold change (FC) [7] of the same compound?
Answer: The fold change (FC) was 2.13.

Question: And the inhibition [8]?
Answer: The inhibition was “Active”.

Question: And the inhibition [9]?
Answer: The inhibition was “Active”.

Question: What about the fold change (FC) [10] of the same compound?
Answer: The fold change (FC) was 1.17.

Question: What about the fold change (FC) [11] of the same compound?
Answer: The fold change (FC) was 1.52.

Question: And the fold change (FC) [12]?
Answer: Its fold change (FC) is 7.85.

Question: And the fold change (FC) [13]?
Answer: The fold change (FC) was 2.21.

Question: And the fold change (FC) [14]?
Answer: The fold change (FC) was 6.03.

Question: `COc1cc([C@@H]2c3cc4c(cc3[C@@H](NC(=O)CNCCCOCCCCOCCCN)[C@H]3COC(=O)[C@H]23)OCO4)cc(OC)c1O` was tested. Which Activity [1] did it give?
Answer: The Activity was 98.9 µM.

Question: What about the Activity [2] of the same compound?
Answer: The Activity was 49.9 µM.

Question: What about the Activity [3] of the same compound?
Answer: The Activity was “inactive”.

Question: What about the Activity [4] of the same compound?
Answer: Its Activity is “inactive”.

Question: What about the inhibition [5] of the same compound?
Answer: Its inhibition is “Active”.

Question: What about the inhibition [6] of the same compound?
Answer: The inhibition was “Active”.

Question: And the fold change (FC) [7]?
Answer: The fold change (FC) was 0.9.

Question: What about the inhibition [8] of the same compound?
Answer: Its inhibition is “Active”.

Question: And the inhibition [9]?
Answer: Its inhibition is “Active”.

Question: What about the fold change (FC) [10] of the same compound?
Answer: The fold change (FC) was 0.87.

Question: And the fold change (FC) [11]?
Answer: Its fold change (FC) is 0.88.

Question: What about the fold change (FC) [12] of the same compound?
Answer: Its fold change (FC) is 2.9.

Question: What about the fold change (FC) [13] of the same compound?
Answer: The fold change (FC) was 3.63.

Question: And the fold change (FC) [14]?
Answer: Its fold change (FC) is 3.13.

Question: How did the Activity [1] turn out when `COc1cc([C@@H]2c3cc4c(cc3[C@@H](NC(=O)CNCCCNCCCCN)[C@H]3COC(=O)[C@H]23)OCO4)cc(OC)c1O` was run?
Answer: The Activity was 54.1 µM.

Question: And the Activity [2]?
Answer: Its Activity is 11 µM.

Question: And the Activity [3]?
Answer: Its Activity is “inactive”.

Question: What about the Activity [4] of the same compound?
Answer: The Activity was “inactive”.

Question: And the inhibition [5]?
Answer: The inhibition was “Active”.

Question: And the inhibition [6]?
Answer: The inhibition was “Active”.

Question: What about the fold change (FC) [7] of the same compound?
Answer: The fold change (FC) was 1.52.

Question: What about the inhibition [8] of the same compound?
Answer: Its inhibition is “Active”.

Question: And the inhibition [9]?
Answer: The inhibition was “Active”.

Question: And the fold change (FC) [10]?
Answer: The fold change (FC) was 1.14.

Question: And the fold change (FC) [11]?
Answer: The fold change (FC) was 1.28.

Question: What about the fold change (FC) [12] of the same compound?
Answer: The fold change (FC) was 7.69.

Question: What about the fold change (FC) [13] of the same compound?
Answer: Its fold change (FC) is 4.92.

Question: And the fold change (FC) [14]?
Answer: The fold change (FC) was 6.8.

Question: Which Activity [1] does the source give for `CNCCCNCCCCNCCCNCC(=O)N[C@@H]1c2cc3c(cc2[C@@H](c2cc(OC)c(O)c(OC)c2)[C@H]2C(=O)OC[C@@H]21)OCO3` here?
Answer: Its Activity is 13.2 µM.

Question: And the Activity [2]?
Answer: Its Activity is 7.5 µM.

Question: What about the Activity [3] of the same compound?
Answer: The Activity was “inactive”.

Question: And the Activity [4]?
Answer: The Activity was “inactive”.

Question: What about the inhibition [5] of the same compound?
Answer: The inhibition was “Active”.

Question: What about the inhibition [6] of the same compound?
Answer: Its inhibition is “Active”.

Question: And the fold change (FC) [7]?
Answer: The fold change (FC) was 2.16.

Question: What about the inhibition [8] of the same compound?
Answer: The inhibition was “Active”.

Question: And the inhibition [9]?
Answer: Its inhibition is “Active”.

Question: And the fold change (FC) [10]?
Answer: The fold change (FC) was 1.37.

Question: And the fold change (FC) [11]?
Answer: The fold change (FC) was 1.66.

Question: And the fold change (FC) [12]?
Answer: The fold change (FC) was 8.36.

Question: What about the fold change (FC) [13] of the same compound?
Answer: The fold change (FC) was 2.61.

Question: And the fold change (FC) [14]?
Answer: Its fold change (FC) is 6.51.

Question: For `COc1cc([C@@H]2c3cc4c(cc3[C@@H](O[C@@H]3O[C@@H]5CO[C@@H](C)O[C@H]5[C@H](O)[C@H]3O)[C@H]3COC(=O)[C@H]23)OCO4)cc(OC)c1O`, which Activity [1] is on record?
Answer: Its Activity is > 100 µM.

Question: What about the Activity [2] of the same compound?
Answer: The Activity was > 100 µM.

Question: And the inhibition [6]?
Answer: The inhibition was “Active”.

Question: And the inhibition [15]?
Answer: Its inhibition is “Active”.

Question: What about the inhibition [16] of the same compound?
Answer: The inhibition was “Active”.

Question: And the inhibition [17]?
Answer: Its inhibition is “Active”.
